Here are results for 29 molecules from patent publication US7704995B2 (Exelixis, Inc., priority 2003, dated 2010).

By IC50 is commonly meant the point on the concentration scale where inhibition reaches its midpoint.

The assay addresses T1, Chk1 (Homo sapiens, UniProt O14757).
T1 construct: purchased Upstate Biotechnology
T1 sequence (O14757 1-476): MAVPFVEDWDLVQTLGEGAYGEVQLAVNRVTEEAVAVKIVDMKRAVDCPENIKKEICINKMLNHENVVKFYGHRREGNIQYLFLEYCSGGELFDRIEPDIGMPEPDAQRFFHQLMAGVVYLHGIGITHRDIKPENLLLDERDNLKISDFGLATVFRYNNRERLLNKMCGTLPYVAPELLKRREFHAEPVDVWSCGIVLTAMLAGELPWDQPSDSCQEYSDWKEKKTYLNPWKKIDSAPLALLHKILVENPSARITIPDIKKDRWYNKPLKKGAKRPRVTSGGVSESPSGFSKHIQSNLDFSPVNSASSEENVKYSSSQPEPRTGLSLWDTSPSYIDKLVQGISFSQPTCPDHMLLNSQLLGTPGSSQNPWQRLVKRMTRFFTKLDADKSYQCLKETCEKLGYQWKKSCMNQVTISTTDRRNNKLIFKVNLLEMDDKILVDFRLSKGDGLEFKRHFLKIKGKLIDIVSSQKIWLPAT
The assay can be described thus: Chk1 kinase assay: incorporation of γ-33P ATP into immobilized myelin basic protein. Format: biochemical. Particulars: Table 11, Chk1 only; class symbols A-D; read-out: Chk1 IC50. The method in brief: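 Incorporation of γ-33P into myelin basic protein coated on plates was scintillation-counted after 1 h at room temperature, duplicate points. Unlabeled ATP was 10 μM with 10 nM Chk1, 30 μM with 20 nM Chk2; buffer Hepes pH 7.6, MgCl2, DTT, 1% DMSO. Output IC50, optionally converted to Ki.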
Take `Nc1ncc(-c2cccc(CNS(=O)(=O)c3ccc(Cl)cc3)c2)nc1C(=O)N[C@H]1CCCNC1` [Example 955, 3-amino-6-[3-({[(4-chlorophenyl)sulfonyl]amino}methyl)phenyl]-N-[(3S)-piperidin-3-yl]pyrazine-2-carboxamide]: the IC50 is less than 50 nM.

On to `Nc1ncc(-c2cccc(CNC(=O)Nc3ccc4c(c3)OCO4)c2)nc1C(=O)N[C@H]1CCCNC1` [Example 956, 3-amino-6-[3-({[(1,3-benzodioxol-5-ylamino)carbonyl]amino}methyl)phenyl]-N-[(3S)-piperidin-3-yl]pyrazine-2-carboxamide], for which the IC50 is less than 50 nM.

In the case of `COc1ccc(NC(=O)NCc2cccc(-c3cnc(N)c(C(=O)N[C@H]4CCCNC4)n3)c2)cc1` [Example 957, 3-amino-6-(3-{[({[4-(methyloxy)phenyl]amino}carbonyl)amino]methyl}phenyl)-N-[(3S)-piperidin-3-yl]pyrazine-2-carboxamide], the IC50 is less than 50 nM.

For `Nc1ncc(-c2cccc(CNC(=O)Nc3ccc(F)cc3)c2)nc1C(=O)N[C@H]1CCCNC1` [Example 958, 3-amino-6-{3-[({[(4-fluorophenyl)amino]carbonyl}amino)methyl]phenyl}-N-[(3S)-piperidin-3-yl]pyrazine-2-carboxamide], the IC50 was less than 50 nM.

Turning to `CCN(CC)CCOc1cccc(-c2cnc(N)c(C(=O)N[C@H]3CCCNC3)n2)c1` [Example 959, 3-amino-6-(3-{[2-(diethylamino)ethyl]oxy}phenyl)-N-[(3S)-piperidin-3-yl]pyrazine-2-carboxamide], the IC50 was less than 50 nM.

Turning to `Nc1ncc(-c2cccc(OCCN3CCOCC3)c2)nc1C(=O)N[C@H]1CCCNC1` [Example 960, 3-amino-6-{3-[(2-morpholin-4-ylethyl)oxy]phenyl}-N-[(3S)-piperidin-3-yl]pyrazine-2-carboxamide], the IC50 was in the range of 50 to 1000 nM.

`COc1cccc(-c2cnc(N)c(C(=O)N[C@H]3CCCNC3)n2)c1` [Example 961, 3-amino-6-[3-(methyloxy)phenyl]-N-[(3S)-piperidin-3-yl]pyrazine-2-carboxamide]: the half-maximal inhibitory concentration (IC50) was less than 50 nM.

As to `CCOc1cccc(-c2cnc(N)c(C(=O)N[C@H]3CCCNC3)n2)c1` [Example 962, 3-amino-6-[3-(ethyloxy)phenyl]-N-[(3S)-piperidin-3-yl]pyrazine-2-carboxamide], the IC50 was less than 50 nM.

With `Nc1ncc(-c2cccc(C(=O)NCc3ccc(-c4csnn4)cc3)c2)nc1C(=O)N[C@H]1CCCNC1` [Example 963, 3-amino-N-[(3S)-piperidin-3-yl]-6-{3-[({[4-(1,2,3-thiadiazol-4-yl)phenyl]methyl}amino)carbonyl]phenyl}pyrazine-2-carboxamide], the IC50 was less than 50 nM.

In the case of `CCNCCOc1cccc(-c2cnc(N)c(C(=O)N[C@H]3CCCNC3)n2)c1` [Example 964, 3-amino-6-(3-{[2-(ethylamino)ethyl]oxy}phenyl)-N-[(3S)-piperidin-3-yl]pyrazine-2-carboxamide], the IC50 is less than 50 nM.

Take `Nc1ncc(-c2cccc(OCCN3CCN(C(=O)OCc4ccccc4)CC3)c2)nc1C(=O)N[C@H]1CCCNC1` [Example 965, phenylmethyl 4-(2-{[3-(5-amino-6-{[(3S)-piperidin-3-ylamino]carbonyl}pyrazin-2-yl)phenyl]oxy}ethyl)piperazine-1-carboxylate]: the IC50 was less than 50 nM.

As to `CN(C)c1ccc(NC(=O)NCc2cccc(-c3cnc(N)c(C(=O)N[C@H]4CCCNC4)n3)c2)cc1` [Example 966, 3-amino-6-(3-{[({[4-(dimethylamino)phenyl]amino}carbonyl)amino]methyl}phenyl)-N-[(3S)-piperidin-3-yl]pyrazine-2-carboxamide], the IC50 was less than 50 nM.

`Nc1ncc(-c2cccc(C(=O)N[C@H]3CCc4ccccc43)c2)nc1C(=O)NC1CCCCNC1` (stereo partly drawn) [Example 967, 3-amino-N-azepan-3-yl-6-(3-{[(1S)-2,3-dihydro-1H-inden-1-ylamino]carbonyl}phenyl)pyrazine-2-carboxamide]: the IC50 was less than 50 nM.

Regarding `Nc1ncc(-c2cccc(CN[C@@H]3c4ccccc4C[C@@H]3O)c2)nc1C(=O)N[C@H]1CCCNC1` [Example 968, 3-amino-6-[3-({[(1R,2S)-2-hydroxy-2,3-dihydro-1H-inden-1-yl]amino}methyl)phenyl]-N-[(3S)-piperidin-3-yl]pyrazin-2-carboxamide], the concentration for half-maximal inhibition (IC50) was less than 50 nM.

`Nc1ncc(-c2cccc(C(=O)N[C@H]3c4ccccc4C[C@@H]3O)c2)nc1C(=O)N[C@H]1CCCCN(Cc2ccccc2)C1` [Example 969, 3-amino-6-[3-({[(1S,2S)-2-hydroxy-2,3-dihydro-1H-inden-1-yl]amino}carbonyl)phenyl]-N-[(3S)-1-(phenylmethyl)azepan-3-yl]pyrazine-2-carboxamide]: the concentration for half-maximal inhibition (IC50) fell in the range of 1000 to 10000 nM.

In the case of `Nc1ncc(-c2cccc(C(=O)N[C@H]3c4ccccc4C[C@@H]3O)c2)nc1C(=O)N[C@H]1CCCCNC1` [Example 970, 3-amino-N-[(3S)-azepan-3-yl]-6-[3({[(1S,2S)-2-hydroxy-2,3-dihydro-1H-inden-1-yl]amino}carbonyl)phenyl]pyrazine-2-carboxamide], the IC50 was less than 50 nM.

With `Nc1ncc(-c2cccc(CNC(=O)Nc3ccc(Cl)cc3)c2)nc1C(=O)N[C@H]1CCCNC1` [Example 971, 3-amino-6-{3-[({[(4-chlorophenyl)amino]carbonyl}amino)methyl]phenyl}-N-[(3S)-piperidin-3-yl]pyrazine-2-carboxamide], the IC50 is less than 50 nM.

Turning to `Nc1ncc(-c2cccc(C(=O)N[C@H]3CCc4ccccc43)c2)nc1C(=O)N[C@H]1CCCCN(Cc2ccccc2)C1` [Example 972, 3-amino-6-(3-{[(1S)-2,3-dihydro-1H-inden-1-ylamino]carbonyl}phenyl)-N-[(3S)-1-(phenylmethyl)azepan-3-yl]pyrazine-2-carboxamide], the half-inhibitory concentration (IC50) lay in the range of 50 to 1000 nM.

Turning to `Nc1ncc(-c2cccc(C(=O)N[C@H]3CCc4ccccc43)c2)nc1C(=O)N[C@H]1CCCCNC1` [Example 973, 3-amino-N-[(3S)-azepan-3-yl]-6-(3{[(1S)-2,3-dihydro-1H-inden-1-ylamino]carbonyl}phenyl)pyrazine-2-carboxamide], the IC50 is less than 50 nM.

With `Cc1cccc(-c2cnc(N)c(C(=O)N[C@H]3CCCCNC3)n2)c1` [Example 974, 3-amino-N-[(3S)-azepan-3-yl]-6-(3-methylphenyl)pyrazine-2-carboxamide], the IC50 was less than 50 nM.

In the case of `Cc1ccccc1CC(=O)Nc1cccc(-c2cnc(N)c(C(=O)N[C@H]3CCCNC3)n2)c1` [Example 975, 3-amino-6-(3-{[(2-methylphenyl)acetyl]amino}phenyl)-N-[(3S)-piperidin-3-yl]pyrazine-2-carboxamide], the IC50 was less than 50 nM.

In the case of `Nc1ncc(-c2cccc(NC(=O)Cc3cccc(C(F)(F)F)c3)c2)nc1C(=O)N[C@H]1CCCNC1` [Example 976, 3-amino-N-[(3S)-piperidin-3-yl]-6-[3-({[3-(trifluoromethyl)phenyl]acetyl}amino)phenyl]pyrazine-2-carboxamide], the IC50 is less than 50 nM.

For the molecule `COc1ccc(CC(=O)Nc2cccc(-c3cnc(N)c(C(=O)N[C@H]4CCCNC4)n3)c2)cc1` [Example 977, 3-amino-6-[3-({[4-(methyloxy)phenyl]acetyl}amino)phenyl]-N-[(3S)-piperidin-3-yl]pyrazine-2-carboxamide], the IC50 is less than 50 nM.

With `Nc1ncc(-c2cccc(NC(=O)Cc3cccc(F)c3)c2)nc1C(=O)N[C@H]1CCCNC1` [Example 979, 3-amino-6-(3-{[(3-fluorophenyl)acetyl]amino}phenyl)-N-[(3S)-piperidin-3-yl]pyrazine-2-carboxamide], the IC50 is less than 50 nM.

Take `Nc1ncc(-c2cccc(NC(=O)Cc3cccnc3)c2)nc1C(=O)N[C@H]1CCCNC1` [Example 980, 3-amino-N-[(3S)-piperidin-3-yl]-6-{3-[(pyridin-3-ylacetyl)amino]phenyl}pyrazine-2-carboxamide]: the half-inhibitory concentration (IC50) is less than 50 nM.

As to `Nc1ncc(-c2cccc(NC(=O)c3cccnc3)c2)nc1C(=O)N[C@H]1CCCNC1` [Example 981, 3-amino-N-[(3S)-piperidin-3-yl]-6-{3-[(pyridin-3-ylcarbonyl)amino]phenyl}pyrazine-2-carboxamide], the IC50 is less than 50 nM.

As for `Nc1ncc(-c2cccc(NC(=O)Cc3cc(F)ccc3F)c2)nc1C(=O)N[C@H]1CCCNC1` [Example 982, 3-amino-6-(3-{[(2,5-difluorophenyl)acetyl]amino}phenyl)-N-[(3S)-piperidin-3-yl]pyrazine-2-carboxamide], the IC50 was less than 50 nM.

For the molecule `Nc1ncc(-c2cccc(NC(=O)Cc3ccc(F)cc3)c2)nc1C(=O)N[C@H]1CCCNC1` [Example 983, 3-amino-6-(3-{[(4-fluorophenyl)acetyl]amino}phenyl)-N-[(3S)-piperidin-3-yl]pyrazine-2-carboxamide], the IC50 was less than 50 nM.

For the molecule `Nc1ncc(-c2cccc(C(=O)NCc3ccc(Cl)c(Cl)c3)c2)nc1C(=O)N[C@H]1CCCNC1` [Example 985, 3-amino-6-[3-({[(3,4-dichlorophenyl)methyl]amino}carbonyl)phenyl]-N-[(3S)-piperidin-3-yl]pyrazine-2-carboxamide], the IC50 was less than 50 nM.
